Converted amounts (≈) assume the structure as drawn. Like-named read-outs stand apart in the source and are kept apart here. Ends that are not written are not given here. Peptide text beside a SMILES is read from it.
How the values were obtained:
B. subtilis = type: cell-based, Bacillus subtilis; settings: B. subtilis; BHI, 30° C., aerobic; inoculum 10^5 CFU/ml; 18-24 h or 48 h
Experimental: (§1) In certain embodiments the MIC assays are performed as described herein in the Examples. For each organism, the media and growth conditions utilized is detailed in Table 8.
(§2) In certain embodiments the MIC assays are performed as follows: For each organism, the media and growth conditions utilized is detailed in Table 8.

MRSA = type: cell-based, Methicillin-resistant Staphylococcus aureus; settings: MRSA; BHI supplemented with 2% glucose, 37° C., aerobic; inoculum 10^5 CFU/ml; 18-24 h or 48 h
Experimental: as §1, §2

A. baumannii = type: cell-based, Acinetobacter baumannii
Experimental: as §1, §2

T. rubrum = type: cell-based, Trichophyton rubrum
Experimental: as §1, §2

S. epidermidis = type: cell-based
Experimental: as §1, §2

C. albicans = type: cell-based, Candida albicans
Experimental: as §1, §2

C. difficile = type: cell-based, Clostridium difficile
Experimental: as §1, §2

S. mutans = type: cell-based, Streptococcus mutans
Experimental: as §1, §2

A. niger = type: cell-based, Aspergillus niger
Experimental: as §1, §2

P. gingivalis = type: cell-based, Porphyromonas gingivalis
Experimental: as §1, §2

A. naeslundii = type: cell-based, Actinomyces naeslundii
Experimental: as §1, §2

Q: With CC[C@H](C)[C@H](NC(=O)CNC(=O)[C@@H](N)CCSC)C(=O)N[C@H](C(=O)N[C@@H](C)C(=O)NCC(=O)N[C@H](C(=O)N[C@H](C(=O)N[C@@H](CCCCN)C(=O)N[C@@H](Cc1ccccc1)C(=O)N[C@H](C(=O)N[C@@H](CCCCN)C(=O)NCC(=O)N[C@@H](CC(C)C)C(=O)N[C@H](C(=O)N[C@@H](CCC(=O)O)C(=O)N[C@@H](CCCCN)C(=O)N[C@@H](Cc1ccccc1)C(=O)N[C@H](C(=O)NCC(=O)N[C@@H](CCCCN)C(=O)O)[C@@H](C)O)[C@@H](C)CC)[C@@H](C)CC)[C@@H](C)CC)[C@@H](C)CC)[C@@H](C)CC [PF-006] as the compound, how does the MIC (B. subtilis) read?
A: 25 µM (≈ 56.9 µg/mL)

Q: What about the MIC (MRSA) of the same compound?
A: 50 µM (≈ 114 µg/mL)

Q: What about the MIC (A. baumannii; A. baumannii, LB, 30° C., anaerobic, inoculum 10^5 CFU/ml, 18-24 h or 48 h) of the same compound?
A: 50 µM (≈ 114 µg/mL)

Q: How did the MIC (T. rubrum) turn out when CC[C@H](C)[C@H](NC(=O)[C@H](CCCCN)NC(=O)[C@H](C)NC(=O)[C@H](Cc1ccccc1)NC(=O)[C@@H](NC(=O)[C@H](C)NC(=O)[C@H](CC(C)C)NC(=O)[C@H](CO)NC(=O)[C@@H](N)CC(C)C)[C@@H](C)O)C(=O)N[C@@H](Cc1ccccc1)C(=O)N[C@@H](CCSC)C(=O)N[C@H](C(=O)N[C@@H](CCCNC(=N)N)C(=O)N[C@@H](CO)C(=O)N[C@@H](CC(N)=O)C(=O)N[C@@H](Cc1c[nH]c2ccccc12)C(=O)N[C@@H](CO)C(=O)N[C@@H](CC(C)C)C(=O)N[C@@H](CCCCN)C(=O)N[C@@H](CCCNC(=N)N)C(=O)N[C@@H](Cc1ccccc1)C(=O)N[C@@H](CC(N)=O)C(=O)N[C@@H](CCCNC(=N)N)C(=O)N[C@@H](CC(C)C)C(=O)O)[C@@H](C)O [PF-278] (H-LSLATFAKIFMTRSNWSLKRFNRL-OH; N-terminus and C-terminus assumed) was run?
A: 50 µM

Q: What about the MIC (S. epidermidis) of the same compound?
A: 50 µM

Q: What about the MIC (C. albicans) of the same compound?
A: 50 µM

Q: For CC[C@H](C)[C@H](NC(=O)[C@H](CO)NC(=O)[C@H](CC(C)C)NC(=O)[C@H](CCSC)NC(=O)[C@H](CC(C)C)NC(=O)[C@H](CCC(=O)O)NC(=O)CNC(=O)[C@H](CCCCN)NC(=O)[C@H](Cc1ccc(O)cc1)NC(=O)[C@H](CCC(=O)O)NC(=O)[C@H](CCCCN)NC(=O)[C@@H](NC(=O)[C@@H](NC(=O)[C@@H](NC(=O)[C@H](CCCCN)NC(=O)[C@H](CCCNC(=N)N)NC(=O)[C@H](CC(C)C)NC(=O)[C@@H](NC(=O)[C@H](CCCCN)NC(=O)[C@H](Cc1ccccc1)NC(=O)[C@H](CCCCN)NC(=O)[C@@H](N)CO)C(C)C)[C@@H](C)CC)[C@@H](C)CC)[C@@H](C)CC)C(=O)N[C@@H](CCC(N)=O)C(=O)N[C@@H](CCCCN)C(=O)N[C@@H](CCC(N)=O)C(=O)N[C@@H](CCCNC(=N)N)C(=O)O [PF-530] (H-SKFKVLRKIIIKEYKGELMLSIQKQR-OH; N-terminus and C-terminus assumed), which MIC (A. baumannii) is on record?
A: 25 µM (≈ 79.4 µg/mL)

Q: What does the source list for CC[C@H](C)[C@H](NC(=O)[C@H](CCC(=O)O)NC(=O)[C@H](CCCCN)NC(=O)[C@@H](NC(=O)[C@H](CCCCN)NC(=O)[C@H](CCC(=O)O)NC(=O)[C@H](CC(C)C)NC(=O)[C@@H](NC(=O)[C@H](CC(=O)O)NC(=O)[C@@H](NC(=O)[C@H](CCC(N)=O)NC(=O)[C@H](CCCCN)NC(=O)[C@H](CCCCN)NC(=O)[C@H](CC(N)=O)NC(=O)[C@@H](N)CCCCN)[C@@H](C)O)[C@@H](C)CC)C(C)C)C(=O)N[C@@H](CC(C)C)C(=O)N[C@@H](CC(=O)O)C(=O)N[C@@H](CCCCN)C(=O)N[C@@H](CCCCN)C(=O)N[C@@H](CCCCN)C(=O)N[C@@H](CCCCN)C(=O)N[C@H](C(=O)N[C@@H](CCCCN)C(=O)N[C@@H](CO)C(=O)N[C@H](C(=O)NCC(=O)N[C@@H](CCC(N)=O)C(=O)N[C@@H](CCCCN)C(=O)N[C@@H](CC(C)C)C(=O)N[C@@H](Cc1ccc(O)cc1)C(=O)O)C(C)C)[C@@H](C)O [PF-538] (H-KNKKQTDILEKVKEILDKKKKTKSVGQKLY-OH; N-terminus and C-terminus assumed)?
A: MIC (A. baumannii): 25 µM (≈ 89 µg/mL); MIC (C. difficile): 25 µM (≈ 89 µg/mL)

Q: CC[C@H](C)[C@H](NC(=O)[C@H](CCCNC(=N)N)NC(=O)[C@@H]1CCCN1C(=O)[C@H](CCC(=O)O)NC(=O)[C@H](CC(C)C)NC(=O)[C@@H]1CCCN1C(=O)[C@H](CC(=O)O)NC(=O)[C@@H](N)CC(C)C)C(=O)N[C@@H](C)C(=O)N1CCC[C@H]1C(=O)N1CCC[C@H]1C(=O)NCC(=O)N[C@@H](CC(=O)O)C(=O)N[C@@H](CCCNC(=N)N)C(=O)N[C@@H](CO)C(=O)N[C@@H](Cc1c[nH]cn1)C(=O)N[C@@H](CCC(N)=O)C(=O)NCC(=O)N[C@@H](C)C(=O)N1CCC[C@H]1C(=O)N[C@@H](C)C(=O)N[C@@H](CS)C(=O)N[C@@H](Cc1c[nH]cn1)C(=O)N[C@@H](CCCNC(=N)N)C(=O)N[C@@H](CC(=O)O)C(=O)N1CCC[C@H]1C(=O)N[C@@H](CC(C)C)C(=O)N[C@@H](CCCNC(=N)N)C(=O)NCC(=O)N[C@@H](CCCNC(=N)N)C(=O)N[C@@H](CO)C(=O)N[C@@H](C)C(=O)N[C@@H](CCCNC(=N)N)C(=O)N[C@@H](CC(=O)O)C(=O)N[C@@H](C)C(=O)N[C@@H](CCC(=O)O)C(=O)N[C@@H](CCCNC(=N)N)C(=O)O [PF-C019] (H-LDPLEPRIAPPGDRSHQGAPACHRDPLRGRSARDAER-OH; N-terminus and C-terminus assumed) was tested. Which MIC (T. rubrum) did it give?
A: 50 µM (≈ 204 µg/mL)

Q: And the MIC (S. mutans)?
A: 25 µM (≈ 102 µg/mL)

Q: What about the MIC (A. niger) of the same compound?
A: 50 µM (≈ 204 µg/mL)

Q: What does the source list for CC[C@H](C)[C@H](NC(=O)[C@H](CCCNC(=N)N)NC(=O)[C@H](C)NC(=O)[C@@H]1CCCN1C(=O)[C@H](Cc1c[nH]c2ccccc12)NC(=O)[C@H](CC(C)C)NC(=O)[C@H](CCCNC(=N)N)NC(=O)[C@H](CCCCN)NC(=O)[C@@H](N)Cc1c[nH]c2ccccc12)C(=O)N[C@@H](CC(C)C)C(=O)N[C@@H](C)C(=O)NCC(=O)N[C@@H](Cc1c[nH]cn1)C(=O)N[C@@H](CO)C(=O)N[C@@H](CCCNC(=N)N)C(=O)N[C@@H](CCCNC(=N)N)C(=O)N[C@@H](CCCNC(=N)N)C(=O)N[C@@H](CCSC)C(=O)N[C@@H](CCCNC(=N)N)C(=O)N[C@@H](Cc1c[nH]c2ccccc12)C(=O)N[C@@H](CCSC)C(=O)N[C@H](C(=O)N[C@H](C(=O)N[C@@H](Cc1c[nH]c2ccccc12)C(=O)N[C@@H](CCCNC(=N)N)C(=O)N[C@@H](Cc1ccc(O)cc1)C(=O)N[C@@H](Cc1ccccc1)C(=O)N[C@@H](C)C(=O)N[C@@H](C)C(=O)N[C@H](C(=O)O)[C@@H](C)O)C(C)C)C(C)C [PF-C021] (H-WKRLWPARILAGHSRRRMRWMVVWRYFAAT-OH; N-terminus and C-terminus assumed)?
A: MIC (T. rubrum): 50 µM (≈ 193 µg/mL); MIC (C. albicans): 50 µM (≈ 193 µg/mL)

Q: With CC[C@H](C)[C@H](N)C(=O)N[C@@H](CC(C)C)C(=O)N[C@@H](CC(N)=O)C(=O)N[C@@H](CCCCN)C(=O)N[C@@H](CCCCN)C(=O)N1CCC[C@H]1C(=O)N[C@@H](CCCCN)C(=O)N[C@@H](CC(C)C)C(=O)N1CCC[C@H]1C(=O)N[C@@H](CC(C)C)C(=O)N[C@@H](Cc1c[nH]c2ccccc12)C(=O)N[C@@H](CCCCN)C(=O)N[C@@H](CC(C)C)C(=O)NCC(=O)N[C@@H](CCCCN)C(=O)N[C@@H](CC(N)=O)C(=O)N[C@@H](Cc1ccc(O)cc1)C(=O)N[C@@H](Cc1ccccc1)C(=O)N[C@@H](CCCNC(=N)N)C(=O)N[C@@H](CCCNC(=N)N)C(=O)N[C@@H](Cc1ccccc1)C(=O)N[C@@H](Cc1ccc(O)cc1)C(=O)N[C@H](C(=O)N[C@@H](CC(C)C)C(=O)N1CCC[C@H]1C(=O)N[C@H](C(=O)N[C@@H](Cc1ccccc1)C(=O)N[C@@H](CC(C)C)C(=O)N[C@@H](C)C(=O)O)[C@@H](C)O)C(C)C [PF-C287] (H-ILNKKPKLPLWKLGKNYFRRFYVLPTFLA-OH; N-terminus and C-terminus assumed) as the compound, how does the MIC (P. gingivalis) read?
A: 50 µM (≈ 178 µg/mL)

Q: And the MIC (C. albicans)?
A: 50 µM (≈ 178 µg/mL)

Q: And the MIC (A. naeslundii)?
A: 25 µM (≈ 89.1 µg/mL)

Q: For FELVDWLETNLGKILKSKSA [PF-522], which MIC (C. difficile; C. difficile, BHIS, 37° C., anaerobic, inoculum 10^5 CFU/ml, 18-24 h or 48 h) is on record?
A: 25 µM

Q: For “MPVSKKRYMLSSAYATALGICYGQVATDEKESEITAIPDLLDYLSVEEYLL [PF-C163]”, which MIC (P. gingivalis) is on record?
A: 50 µM

Q: What about the MIC (S. epidermidis) of the same compound?
A: 50 µM

Q: And the MIC (A. naeslundii)?
A: 50 µM

Q: For WSRVPGHSDTGWKVWHRW [PF-547], which MIC (T. rubrum; T. rubrum, Potato Dextrose Agar, 25° C., aerobic, inoculum 10^5 CFU/ml, 18-24 h or 48 h) is on record?
A: 25 µM

Q: And the MIC (B. subtilis)?
A: 25 µM

Q: What about the MIC (S. mutans; S. mutans, TH supplemented with 1% sucrose, 37° C., anaerobic, inoculum 10^5 CFU/ml, 18-24 h or 48 h) of the same compound?
A: 12.5 µM
